According to patent publication US20250144067A1, “PERSONALIZED STARVATION THERAPY FOR CANCER” (Faeth Therapeutics, Inc., priority 2021, published 2025):
Structures can show the parent of a compound that is named as a salt. Where two headings read alike, the source gives them in different places.

Legend:
[1] = test system: NCI-H292 lung cancer cells; experiment: FDA drug screening, complete media vs cholesterol-free media without statin (TABLE 1); assay type: cell-based, human
[2] = test system: NCI-H292 lung cancer cells; experiment: FDA drug screening, complete media vs cholesterol-free media with simvastatin (TABLE 2); assay type: cell-based, human
[3] = Complete minus Cholesterol-free, greater than 0 enhanced anti-cancer activity, about 0 neutral, below 0 antagonist
[4] = NCI-H292 cells, FDA drug library screen, cholesterol-free media without statin
[5] = NCI-H292 cells, FDA drug library screen, complete media
[6] = NCI-H292 cells, FDA library drug in cholesterol-free media with simvastatin 0.04 μM
[7] = NCI-H292 cells, FDA library drug in complete media
[8] = complete media vs cholesterol-free media + simvastatin (0.04 μM), >0 enhanced anti-cancer activity, about 0 neutral, <0 antagonist
[9] = NCI-H292 cells, cholesterol-free media without statin
[10] = complete vs cholesterol-free media, greater than 0 enhanced anti-cancer activity, about 0 neutral, below 0 antagonists
[11] = NCI-H292 cells, cholesterol-free media with simvastatin 0.04 μM, cell growth value in FDA drug screen
[12] = NCI-H292 cells, complete media, cell growth value in FDA drug screen
[13] = complete media minus cholesterol-free media + simvastatin, >0 enhanced anti-cancer activity, about 0 neutral, <0 antagonist
[14] = NCI-H292 cells, cholesterol-free media without statin, FDA drug library screen
[15] = NCI-H292 cells, complete media, FDA drug library screen
[16] = NCI-H292 cells, FDA drug library screen, cholesterol-free media with simvastatin 0.04 μM
[17] = Complete minus Cholesterol-free, >0 enhanced anti-cancer activity, about 0 neutral, <0 antagonist

| SMILES | Difference [1, 3] | Cholesterol-free [1, 4] | Complete [1, 5] | Cholesterol-free media + simvastatin (0.04 μM) [2, 6] | Complete Media [2, 7] | Difference [2, 8] | Cholesterol-free [1, 9] | Complete ([1]; NCI-H292 cells, complete media) | Difference [2, 13] | other results |
| --- | --- | --- | --- | --- | --- | --- | --- | --- | --- | --- |
| C[C@H](O)[C@H](O)[C@H]1CNc2nc(N)[nH]c(=O)c2N1 [Tetrahydrobiopterin] | −0.10 | 0.9498 | 0.8545 | 1.389 | 1.025 | −0.36 |  |  |  |  |
| N[C@@H]1[C@H]2CN(c3nc4c(cc3F)c(=O)c(C(=O)O)cn4-c3ccc(F)cc3F)C[C@@H]12 [Trovafloxacin] |  |  |  |  |  |  | 1.186 | 0.8678 | 0.02 | Difference [1, 10]: −0.32; Cholesterol-free media + simvastatin (0.04 μM) [2, 11]: 1.092; Complete Media [2, 12]: 1.114 |
| N[C@@H](CCC(=O)O)C(=O)[O-].[Na+] [L-Glutamic acid monosodium salt] |  |  |  | 1.191 | 0.778 |  |  |  |  | Difference ([1]; Complete minus Cholesterol-free, […]): −0.03; Cholesterol-free [1, 14]: 1.093; Complete [1, 15]: 1.059; Difference ([2]; complete media vs cholesterol-free media + simvastatin (0.04 μM), […]): −0.41 |
| Cc1cnc(C(=O)O)c[n+]1[O-] [Acipimox] |  |  |  |  |  | −0.09 | 1.354 | 1.008 |  | Difference [1, 10]: −0.35; Cholesterol-free media + simvastatin (0.04 μM) [2, 16]: 1.352; Complete Media [2, 5]: 1.26 |
| C[C@@H](CN1CC(=O)NC(=O)C1)N1CC(=O)NC(=O)C1 [Dexrazoxane (hydrochloride)] |  |  |  | 1.279 | 1.002 | −0.28 |  |  |  | Difference [1, 17]: 0.03; Cholesterol-free [1, 14]: 0.9516; Complete [1, 15]: 0.9799 |
| CN[C@H](CC(C)C)C(=O)N[C@H]1C(=O)N[C@@H](CC(N)=O)C(=O)N[C@H]2C(=O)N[C@H]3C(=O)N[C@H](C(=O)N[C@H](C(=O)O)c4cc(O)cc(O)c4-c4cc3ccc4O)[C@H](O)c3ccc(c(Cl)c3)Oc3cc2cc(c3O[C@@H]2O[C@H](CO)[C@@H](O)[C@H](O)[C@H]2O[C@H]2C[C@](C)(N)[C@H](O)[C@H](C)O2)Oc2ccc(cc2Cl)[C@H]1O [Vancomycin (hydrochloride)] |  |  |  |  |  |  |  |  |  | Cholesterol-free [1]: 0.8305; Complete [1]: 0.7537; Difference [1]: −0.08; Cholesterol-free media + simvastatin (0.04 μM) [2]: 0.8152; Complete Media [2]: 0.7422; Difference [2]: −0.07 |
| CCc1cccc2c3c([nH]c12)C(CC)(CC(=O)O)OCC3 (stereo not drawn) [Etodolac] |  |  |  |  |  |  | 1.251 | 0.9193 | 0.15 | Difference [1, 10]: −0.33; Cholesterol-free media + simvastatin (0.04 μM) [2, 16]: 0.9939; Complete Media [2, 5]: 1.145 |
| N=C1CCCN1Cc1nc(O)nc(O)c1Cl [Tipiracil (hydrochloride)] |  |  |  |  |  |  |  |  | 0.15 | Difference [1, 17]: 0.03; Cholesterol-free [1, 14]: 0.8754; Complete [1, 15]: 0.9052; Cholesterol-free media + simvastatin (0.04 μM) [2, 16]: 0.8843; Complete Media [2, 5]: 1.03 |
| Cc1ccc(C)c(OCCCC(C)(C)C(=O)O)c1 [Gemfibrozil] |  |  |  |  |  | −0.11 | 1.369 | 0.9198 |  | Difference [1, 10]: −0.45; Cholesterol-free media + simvastatin (0.04 μM) [2, 16]: 1.808; Complete Media [2, 5]: 1.701 |
| C=CCN1CCCC1CNC(=O)c1cc2[nH]nnc2cc1OC (stereo not drawn) [Alizapride hydrochloride] |  |  |  |  |  |  | 1.222 | 0.9062 | 0.04 | Difference [1, 10]: −0.32; Cholesterol-free media + simvastatin (0.04 μM) [2, 11]: 1.019; Complete Media [2, 12]: 1.057 |
| Cc1ccccc1-c1cc(N2CCN(C)CC2)ncc1N(C)C(=O)C(C)(C)c1cc(C(F)(F)F)cc(C(F)(F)F)c1 [Netupitant] |  |  |  |  |  |  | 1.25 | 0.915 | 0.06 | Difference [1, 10]: −0.34; Cholesterol-free media + simvastatin (0.04 μM) [2, 11]: 0.8546; Complete Media [2, 12]: 0.9156 |
| COc1ccc2cc([C@H](C)C(=O)O)ccc2c1 [Naproxen] |  |  |  |  |  |  | 1.155 | 0.9257 | 0.08 | Difference [1, 17]: −0.23; Cholesterol-free media + simvastatin (0.04 μM) [2, 11]: 0.9241; Complete Media [2, 12]: 1.007 |
| CCOc1ccc(Cc2cc([C@@H]3O[C@H](CO)[C@@H](O)[C@H](O)[C@H]3O)ccc2Cl)cc1 [Dapagliflozin] | −0.18 | 1.052 | 0.875 | 1.024 | 0.6919 | −0.33 |  |  |  |  |
| COc1ccc(-c2cc(=S)ss2)cc1 [Anethole (trithione)] | −0.18 | 1.563 | 1.382 | 1.972 | 1.115 | −0.86 |  |  |  |  |
| Cc1cc(C2CCCCC2)n(O)c(=O)c1 [Ciclopirox (olamine)] | −0.13 | 0.3971 | 0.2691 |  |  |  |  |  | 0.12 | Cholesterol-free media + simvastatin (0.04 μM) [2, 11]: 0.5971; Complete Media [2, 12]: 0.715 |
| Cl.NCC(O)c1ccc(O)c(O)c1 (racemic) [DL-Norepinephrine (hydrochloride)] |  |  |  | 0.9652 | 0.176 | −0.79 |  |  |  | Cholesterol-free [1, 14]: 1.105; Complete [1, 15]: 1.652; Difference ([1]; complete vs cholesterol-free media, >0 enhanced anti-cancer activity, about 0 neutral, <0 antagonist): 0.55 |
| CC(=O)O[C@]1(C(C)=O)CC[C@H]2[C@@H]3C=C(C)C4=CC(=O)CC[C@@H]4[C@H]3CC[C@@]21C [Nomegestrol acetate] | −0.14 | 0.9161 | 0.7734 |  |  |  |  |  |  | Cholesterol-free media + simvastatin (0.04 μM) ([2]; NCI-H292 cells, cholesterol-free media with simvastatin 0.04 μM, FDA drug library screen (TABLE 2)): 0.9875; Complete Media ([2]; NCI-H292 cells, complete media, FDA drug library screen (TABLE 2)): 0.9519; Difference ([2]; complete media minus cholesterol-free media + simvastatin (0.04 μM), >0 enhanced anti-cancer activity, about 0 neutral, <0 antagonist): −0.04 |
| CC1(C)[C@@H](O)CC[C@]2(C)[C@H]3C(=O)C=C4[C@@H]5C[C@@](C)(C(=O)O)CC[C@]5(C)CC[C@@]4(C)[C@]3(C)CC[C@@H]12 [18β-Glycyrrhetinic acid] | −0.09 | 1.192 | 1.102 |  |  | −0.10 |  |  |  | Cholesterol-free media + simvastatin (0.04 μM) [2, 16]: 0.8991; Complete Media [2, 5]: 0.8018 |
| COc1cc(NS(=O)(=O)c2ccc(N)cc2)nc(OC)n1 [Sulfadimethoxine (sodium)] |  |  |  | 1.876 | 1.521 | −0.35 | 1.031 | 0.7288 |  | Difference [1, 17]: −0.30 |
| CC1(C)[C@@H](O[C@H]2O[C@H](C(=O)O)[C@@H](O)[C@H](O)[C@H]2O[C@@H]2O[C@H](C(=O)O)[C@@H](O)[C@H](O)[C@H]2O)CC[C@]2(C)[C@H]3C(=O)C=C4[C@@H]5C[C@@](C)(C(=O)O)CC[C@]5(C)CC[C@@]4(C)[C@]3(C)CC[C@@H]12 [Glycyrrhizic acid] | −0.08 | 1.146 | 1.061 |  |  | −0.13 |  |  |  | Cholesterol-free media + simvastatin (0.04 μM) [2, 16]: 1.042; Complete Media [2, 5]: 0.907 |
| Oc1cc(O)c(Cl)cn1 [Gimeracil] |  |  |  | 2.327 | 1.491 | −0.84 |  |  |  | Difference [1, 17]: 0.07; Cholesterol-free [1, 14]: 0.8525; Complete [1, 15]: 0.9232 |
